{
  "source": "patent US8357694B2",
  "about": "“Substituted 5,6-dihydro-6-phenylbenzo[F]isoquinolin-2-amine compounds” (ArQule, Inc., priority 2008, dated 2013)",
  "data": [
    {"units": {"melting point": "°C"}, "values": [
      {"compound": "Clc1ccc([C@@H]2Cc3cnc(Nc4ccccc4)nc3-c3ccccc32)cc1Cl", "note": "[Example 15, (S)-6-(3,4-dichlorophenyl)-N-phenyl-5,6-dihydrobenzo[h]quinazolin-2-amine]", "melting point": 159},
      {"compound": "Fc1ccc(C2Cc3cnc(NCCCN4CCCCC4)nc3-c3ccccc32)cc1", "note": "(centres unmarked) [Example 16, 6-(4-fluorophenyl)-N-(3-(piperidin-1-yl)propyl)-5,6-dihydrobenzo[h]quinazolin-2-amine]", "melting point": "60 to 62"},
      {"compound": "CC(C)(C)OC(=O)N1CCC(Nc2ncc3c(n2)-c2ccccc2C(c2ccc(Cl)c(Cl)c2)C3)CC1", "note": "(centres unmarked) [Example 19, tert-butyl 4-(6-(3,4-dichlorophenyl)-5,6-dihydrobenzo[h]quinazolin-2-ylamino)piperidine-1-carboxylate]", "melting point": "94 to 96"},
      {"compound": "CC(C)c1ccc2c(c1)C(c1ccc(Cl)c(Cl)c1)Cc1cnc(N)nc1-2", "note": "(centres unmarked) [Example 20, 6-(3,4-dichlorophenyl)-8-isopropyl-5,6-dihydrobenzo[h]quinazolin-2-amine]", "melting point": "174 to 176"},
      {"compound": "Nc1ncc2c(n1)-c1ccc(-c3ccccc3)cc1C(c1ccc(Cl)c(Cl)c1)C2", "note": "(centres unmarked) [Example 21, 6-(3,4-dichlorophenyl)-8-phenyl-5,6-dihydrobenzo[h]quinazolin-2-amine]", "melting point": "186 to 187"},
      {"compound": "OCCc1ccc(Nc2ncc3c(n2)-c2ccccc2C(c2ccc(Cl)cc2)C3)cc1", "note": "(centres unmarked) [Example 22, 2-(4-(6-(4-chlorophenyl)-5,6-dihydrobenzo[h]quinazolin-2-ylamino)phenyl)ethanol]", "melting point": "163 to 164"},
      {"compound": "OCCc1ccc(Nc2ncc3c(n2)-c2ccccc2C(c2ccc(F)c(F)c2)C3)cc1", "note": "(centres unmarked) [Example 23, 2-(4-(6-(3,4-difluorophenyl)-5,6-dihydrobenzo[h]quinazolin-2-ylamino)phenyl)ethanol]", "melting point": "170 to 172"},
      {"compound": "CCCCN(C)CCc1ccc(Nc2ncc3c(n2)-c2ccccc2C(c2cccc(Br)c2)C3)cc1", "note": "(centres unmarked) [Example 26, 6-(3-bromophenyl)-N-(4-(2-(butyl(methyl)amino)ethyl)phenyl)-5,6-dihydrobenzo[h]quinazolin-2-amine]", "melting point": "66 to 68"},
      {"compound": "CN1CCN(CCc2ccc(Nc3ncc4c(n3)-c3ccccc3C(c3cccc(Br)c3)C4)cc2)CC1", "note": "(centres unmarked) [Example 28, 6-(3-bromophenyl)-N-(4-(2-(4-methylpiperazin-1-yl)ethyl)phenyl)-5,6-dihydrobenzo[h]quinazolin-2-amine]", "melting point": "100 to 102"},
      {"compound": "CN(CCc1ccc(Nc2ncc3c(n2)-c2ccccc2C(c2cccc(Br)c2)C3)cc1)C1CCCCC1", "note": "(centres unmarked) [Example 29, 6-(3-bromophenyl)-N-(4-(2-(cyclohexyl(methyl)amino)ethyl)phenyl)-5,6-dihydrobenzo[h]quinazolin-2-amine]", "melting point": "215 to 217"},
      {"compound": "CN(CCc1ccc(Nc2ncc3c(n2)-c2ccccc2C(c2ccc(Cl)c(Cl)c2)C3)cc1)C1CCCCC1", "note": "(centres unmarked) [Example 30, N-(4-(2-(cyclohexyl(methyl)amino)ethyl)phenyl)-6-(3,4-dichlorophenyl)-5,6-dihydrobenzo[h]quinazolin-2-amine]", "melting point": "130 to 131"},
      {"compound": "Brc1cccc(C2Cc3cnc(Nc4ccc(CCN5CCOCC5)cc4)nc3-c3ccccc32)c1", "note": "(centres unmarked) [Example 31, 6-(3-bromophenyl)-N-(4-(2-morpholinoethyl)phenyl)-5,6-dihydrobenzo[h]quinazolin-2-amine]", "melting point": "86 to 88"},
      {"compound": "COCCN1CCN(CCc2ccc(Nc3ncc4c(n3)-c3ccccc3C(c3cccc(Br)c3)C4)cc2)CC1", "note": "(centres unmarked) [Example 32, 6-(3-bromophenyl)-N-(4-(2-(4-(2-methoxyethyl)piperazin-1-yl)ethyl)phenyl)-5,6-dihydrobenzo[h]quinazolin-2-amine]", "melting point": "105 to 107"},
      {"compound": "COCCN1CCN(CCc2ccc(Nc3ncc4c(n3)-c3ccccc3C(c3ccc(Cl)c(Cl)c3)C4)cc2)CC1", "note": "(centres unmarked) [Example 33, 6-(3,4-dichlorophenyl)-N-(4-(2-(4-(2-methoxyethyl)piperazin-1-yl)ethyl)phenyl)-5,6-dihydrobenzo[h]quinazolin-2-amine]", "melting point": "121 to 122"}
    ]}
  ]
}
